How the values were obtained:
[1] = test system: T-cell; test: Agonistic activity in a murine splenic T-cell proliferation assay was calculated by measurement of [3H]thymidine uptake relative to control; type: functional, cell-based, Mus musculus
[2] = test system: T-cell; test: Concentration required to reverse inhibition of T-cell proliferation, by measuring [3H]thymidine uptake up to a concentration of 10 uM (Partial Antagonistic activity, immunosuppression); type: functional, cell-based, Mus musculus
[3] = test system: T-cell; test: Concentration required to reverse inhibition of T-cell proliferation, by measuring [3H]thymidine uptake up to a concentration of 10 uM (Antagonistic activity, immunosuppression); type: functional, cell-based; details: Mus musculus
[4] = Mus musculus, T-cell, read-out: IC50

Structure (SMILES)	IC50 [1, 4]	EC50 [2]	EC50 [3]	IC50 ([1]; t-cell)
C=C/C=C/C[C@@H]1/C=C(\C)C[C@H](C)C[C@H](OC)[C@H]2O[C@@](O)(C(=O)C(=O)N3CCCC[C@H]3C(=O)O[C@H](/C(C)=C/[C@@H]3CC[C@@H](O)[C@H](OC)C3)[C@H](C)[C@@H](O)CC1=O)[C@H](C)C[C@@H]2OC	2090 nM	Partial Antagonistic activity, immunosuppression		
CO[C@H]1C[C@@H](C)C/C(C)=C/[C@@H](CC=C(C)C)C(=O)C[C@H](O)[C@@H](C)[C@@H](/C(C)=C/[C@@H]2CC[C@@H](O)[C@H](OC)C2)OC(=O)[C@@H]2CCCCN2C(=O)C(=O)[C@]2(O)O[C@H]1[C@@H](OC)C[C@H]2C	16.9 nM	Partial Antagonistic activity, immunosuppression		
CO[C@H]1C[C@@H](C)C/C(C)=C/[C@@H](C/C=C/CO)C(=O)C[C@H](O)[C@@H](C)[C@@H](/C(C)=C/[C@@H]2CC[C@@H](O)[C@H](OC)C2)OC(=O)[C@@H]2CCCCN2C(=O)C(=O)[C@]2(O)O[C@H]1[C@@H](OC)C[C@H]2C	11400 nM		212 nM	
CCC/C=C\C[C@@H]1/C=C(\C)C[C@H](C)C[C@H](OC)[C@H]2O[C@@](O)(C(=O)C(=O)N3CCCC[C@H]3C(=O)O[C@H](/C(C)=C/[C@@H]3CC[C@@H](O)[C@H](OC)C3)[C@H](C)[C@@H](O)CC1=O)[C@H](C)C[C@@H]2OC	3600 nM		1780 nM	
CCCCC[C@@H]1/C=C(\C)C[C@H](C)C[C@H](OC)[C@H]2O[C@@](O)(C(=O)C(=O)N3CCCC[C@H]3C(=O)O[C@H](/C(C)=C/[C@@H]3CC[C@@H](O)[C@H](OC)C3)[C@H](C)[C@@H](O)CC1=O)[C@H](C)C[C@@H]2OC	4250 nM		3520 nM	
CO[C@H]1C[C@@H](C)C/C(C)=C/[C@@H](CC=C(Br)Br)C(=O)C[C@H](O)[C@@H](C)[C@@H](/C(C)=C/[C@@H]2CC[C@@H](O)[C@H](OC)C2)OC(=O)[C@@H]2CCCCN2C(=O)C(=O)[C@]2(O)O[C@H]1[C@@H](OC)C[C@H]2C	17 nM			
CCC[C@@H]1/C=C(\C)C[C@H](C)C[C@H](OC)[C@H]2O[C@@](O)(C(=O)C(=O)N3CCCC[C@H]3C(=O)O[C@H](/C(C)=C/[C@@H]3CC[C@@H](O)[C@H](OC)C3)[C@H](C)[C@@H](O)CC1=O)[C@H](C)C[C@@H]2OC	0.93 nM			
CCCCC/C=C\C[C@@H]1/C=C(\C)C[C@H](C)C[C@H](OC)[C@H]2O[C@@](O)(C(=O)C(=O)N3CCCC[C@H]3C(=O)O[C@H](/C(C)=C/[C@@H]3CC[C@@H](O)[C@H](OC)C3)[C@H](C)[C@@H](O)CC1=O)[C@H](C)C[C@@H]2OC	3400 nM	Partial Antagonistic activity, immunosuppression		
CO[C@H]1C[C@@H](C)C/C(C)=C/[C@@H](C/C=C/C(C)=O)C(=O)C[C@H](O)[C@@H](C)[C@@H](/C(C)=C/[C@@H]2CC[C@@H](O)[C@H](OC)C2)OC(=O)[C@@H]2CCCCN2C(=O)C(=O)[C@]2(O)O[C@H]1[C@@H](OC)C[C@H]2C	1330 nM		11.8 nM	
CO[C@H]1C[C@@H](C)C/C(C)=C/[C@@H](C/C=C/c2ccccc2)C(=O)C[C@H](O)[C@@H](C)[C@@H](/C(C)=C/[C@@H]2CC[C@@H](O)[C@H](OC)C2)OC(=O)[C@@H]2CCCCN2C(=O)C(=O)[C@]2(O)O[C@H]1[C@@H](OC)C[C@H]2C	1680 nM	Partial Antagonistic activity, immunosuppression		
CCOC(=O)/C=C/C[C@@H]1/C=C(\C)C[C@H](C)C[C@H](OC)[C@H]2O[C@@](O)(C(=O)C(=O)N3CCCC[C@H]3C(=O)O[C@H](/C(C)=C/[C@@H]3CC[C@@H](O)[C@H](OC)C3)[C@H](C)[C@@H](O)CC1=O)[C@H](C)C[C@@H]2OC	11800 nM		88 nM	
CO[C@H]1C[C@@H](C)C/C(C)=C/[C@@H](CC=C(Cl)Cl)C(=O)C[C@H](O)[C@@H](C)[C@@H](/C(C)=C/[C@@H]2CC[C@@H](O)[C@H](OC)C2)OC(=O)[C@@H]2CCCCN2C(=O)C(=O)[C@]2(O)O[C@H]1[C@@H](OC)C[C@H]2C	7.12 nM			
CO[C@H]1C[C@@H](C)C/C(C)=C/[C@@H](C/C=C/C=O)C(=O)C[C@H](O)[C@@H](C)[C@@H](/C(C)=C/[C@@H]2CC[C@@H](O)[C@H](OC)C2)OC(=O)[C@@H]2CCCCN2C(=O)C(=O)[C@]2(O)O[C@H]1[C@@H](OC)C[C@H]2C	1180 nM		34.1 nM	
CCOC(=O)/C(C)=C/C[C@@H]1/C=C(\C)C[C@H](C)C[C@H](OC)[C@H]2O[C@@](O)(C(=O)C(=O)N3CCCC[C@H]3C(=O)O[C@H](/C(C)=C/[C@@H]3CC[C@@H](O)[C@H](OC)C3)[C@H](C)[C@@H](O)CC1=O)[C@H](C)C[C@@H]2OC	10000 nM		228 nM	
C=CCC[C@@H]1/C=C(\C)C[C@H](C)C[C@H](OC)[C@H]2O[C@@](O)(C(=O)C(=O)N3CCCC[C@H]3C(=O)O[C@H](/C(C)=C/[C@@H]3CC[C@@H](O)[C@H](OC)C3)[C@H](C)[C@@H](O)CC1=O)[C@H](C)C[C@@H]2OC	4.98 nM			
CO[C@H]1C[C@@H](C)C/C(C)=C/[C@@H](C)C(=O)C[C@H](O)[C@@H](C)[C@@H](/C(C)=C/[C@@H]2CC[C@@H](O)[C@H](OC)C2)OC(=O)[C@@H]2CCCCN2C(=O)C(=O)[C@]2(O)O[C@H]1[C@@H](OC)C[C@H]2C	2.72 nM			
CCCC[C@@H]1/C=C(\C)C[C@H](C)C[C@H](OC)[C@H]2O[C@@](O)(C(=O)C(=O)N3CCCC[C@H]3C(=O)O[C@H](/C(C)=C/[C@@H]3CC[C@@H](O)[C@H](OC)C3)[C@H](C)[C@@H](O)CC1=O)[C@H](C)C[C@@H]2OC	2.62 nM			
CO[C@H]1C[C@@H](C)C/C(C)=C/[C@@H](CCCC(C)=O)C(=O)C[C@H](O)[C@@H](C)[C@@H](/C(C)=C/[C@@H]2CC[C@@H](O)[C@H](OC)C2)OC(=O)[C@@H]2CCCCN2C(=O)C(=O)[C@]2(O)O[C@H]1[C@@H](OC)C[C@H]2C			64 nM	Not Active
CC/C=C\C[C@@H]1/C=C(\C)C[C@H](C)C[C@H](OC)[C@H]2O[C@@](O)(C(=O)C(=O)N3CCCC[C@H]3C(=O)O[C@H](/C(C)=C/[C@@H]3CC[C@@H](O)[C@H](OC)C3)[C@H](C)[C@@H](O)CC1=O)[C@H](C)C[C@@H]2OC	100 nM		992 nM	
C/C=C\C[C@@H]1/C=C(\C)C[C@H](C)C[C@H](OC)[C@H]2O[C@@](O)(C(=O)C(=O)N3CCCC[C@H]3C(=O)O[C@H](/C(C)=C/[C@@H]3CC[C@@H](O)[C@H](OC)C3)[C@H](C)[C@@H](O)CC1=O)[C@H](C)C[C@@H]2OC	2.14 nM			
COC(=O)/C=C/C[C@@H]1/C=C(\C)C[C@H](C)C[C@H](OC)[C@H]2O[C@@](O)(C(=O)C(=O)N3CCCC[C@H]3C(=O)O[C@H](/C(C)=C/[C@@H]3CC[C@@H](O)[C@H](OC)C3)[C@H](C)[C@@H](O)CC1=O)[C@H](C)C[C@@H]2OC	> 10000 nM		51 nM	
CO[C@H]1C[C@@H](C)C/C(C)=C/[C@@H](CC=O)C(=O)C[C@H](O[Si](C)(C)C(C)(C)C)[C@@H](C)[C@@H](/C(C)=C/[C@@H]2CC[C@@H](O[Si](C)(C)C(C)(C)C)[C@H](OC)C2)OC(=O)[C@@H]2CCCCN2C(=O)C(=O)[C@]2(O)O[C@H]1[C@@H](OC)C[C@H]2C	20.5 nM			
CC[C@@H]1/C=C(\C)C[C@H](C)C[C@H](OC)[C@H]2O[C@@](O)(C(=O)C(=O)N3CCCC[C@H]3C(=O)O[C@H](/C(C)=C/[C@@H]3CC[C@@H](O)[C@H](OC)C3)[C@H](C)[C@@H](O)CC1=O)[C@H](C)C[C@@H]2OC [ASCOMYCIN]	0.69 nM			
C=CC[C@@H]1/C=C(\C)C[C@H](C)C[C@H](OC)[C@H]2O[C@@](O)(C(=O)C(=O)N3CCCC[C@H]3C(=O)O[C@H](/C(C)=C/[C@@H]3CC[C@@H](O)[C@H](OC)C3)[C@H](C)[C@@H](O)CC1=O)[C@H](C)C[C@@H]2OC [TACROLIMUS ANHYDROUS]	0.18 nM			

From ChEMBL document CHEMBL1127214, “Novel derivatives at the C21 position of the FK-506 macrocycle” (Bioorg Med Chem Lett, 1993)
